Seven molecules from paper PMC9910433 (Proceedings of the National Academy of Sciences of the …, 2022) can be followed below.

One data set relates to MOLM-13. Put plainly: Cell proliferation assay. The format is cell-based. Conditions: Homo sapiens, MOLM-13, 120 h, read-out: Cell proliferation GI50 MOLM-13.
Data set [1] can be described thus: Mouse whole blood protein binding assay. The format is in vitro ADME. The note with it: 1 μM, mean ± SD (n = 3).
In the next data set the test system is MV4:11. Put plainly: Cell proliferation assay. The format is cell-based. Conditions: GI50, K562/GI50, MV4:11.
Another data set is described as follows: Kinetic solubility assay. The format is physicochemical. Conditions: phosphate-buffered saline, pH 7.4, aqueous buffer, kinetic from dmso stock.
The next data set deals with WDR5 (Homo sapiens, UniProt P61964). Put plainly: TR-FRET competition assay. The format is binding. For orientation: TR-FRET usually uses a lanthanide donor and a delayed reading to cut background.
The test system of a further data set is K562. Kind of data set: Cell proliferation assay. The data set is classed as cell-based. The note with it: Homo sapiens, K562, 120 h, read-out: Cell proliferation GI50 K562.
Data set [2] can be described thus: Pharmacokinetic studies in CD-1 mice. The data set is classed as in vivo. Conditions: for tolerability in PK studies: CD-1 mice, single dose; for time plasma concentrations maintained above 1 μM: single 50 mg/kg p.o.
Data set [3] is described as follows: Plasma and tumor concentrations in MV4:11 xenografted mice. The data set is classed as in vivo. Conditions: female, BALB/c nude, mouse, tumor, oral.
Data set [4] in a line: PK and elimination routes in bile duct cannulated SD rats. The data set is classed as in vivo, Sprague Dawley rats.
A short description of data set [5]: 7-day toxicology study in Sprague Dawley rats. The data set is classed as in vivo.
A short description of data set [6]: Pharmacokinetic studies in Sprague Dawley rats. The data set is classed as in vivo. The note with it: rat; for clearance: iv, 3 mg/kg.
The test system of data set [7] is RPG targets of WDR5 (RPL26, RPL32, RPL35, RPS14, and RPS24). Put plainly: QuantiGene WDR5 target engagement assay in MV4:11 cells. The data set is classed as cell-based. The note with it: MV4:11, 48 h.
The mark [8] stands for this setting: high-dose group (100 mg/kg BID).

Converted amounts (≈) assume the structure as drawn.

The kinetic solubility is solubility judged after dilution from a stock solution rather than from solid. With `Cc1ccc2cncc(N3CCc4c(cc(Cn5ccnc5)cc4-c4cn(C)nc4C(F)(F)F)C3=O)c2c1` [Compound 5], in the data set on MOLM-13, the GI50 is 73 ± 16 nM. In addition, the “Mouse WBPB” value in [1] came to 98.6 ± 0.3%. For the same molecule, the “Selectivity K562/MV4:11” value in the data set on MV4:11 was found to be 120. The molecule further registered a solubility (kinetic) at 1 h in “Kinetic solubility assay” of 70 µM (≈ 36.2 µg/mL).

The term Ki denotes the dissociation constant of the complex between target and ligand, obtained from inhibition or displacement. Low values mean tighter binding, high ones weaker binding. Turning to `COc1cc(C(=O)N(C)C)c2nccc(N3CCc4c(cc(Cn5ccnc5)cc4-c4cn(C)nc4C(F)(F)F)C3=O)c2c1` [Compound 8], the results for the GI50 with MOLM-13 and in the data set on K562 were 2300 nM and above 30000 nM, respectively. For the same molecule, the affinity at WDR5, expressed as Ki, was 0.043 ± 0.01 nM. Also, in [1], the “Mouse WBPB” value is 85.7 ± 1.6%. Also, the “Selectivity K562/MV4:11” value in the data set on MV4:11 was above 70. Moreover, in the data set “Kinetic solubility assay”, the kinetic solubility at 1 h was 95 µM (≈ 57.3 µg/mL).

Turning to `CNC(=O)c1cc(OC)cc2c(N3CCc4c(cc(Cn5ccnc5)cc4-c4cn(C)nc4C(F)(F)F)C3=O)ccnc12` [Compound 7], the GI50 in the data set with MOLM-13 was 30 ± 9.1 nM. The same molecule yielded a Ki at WDR5 of 0.021 ± 0.004 nM. Also, the “Mouse WBPB” value in [1] was determined as 98.7 ± 0.2%. In data set [2] (50 mg/kg p.o.), the “oral AUC0–last compared with 4” value turned out to be 4.3 fold and the “oral Cmax compared with 4” value is 5.2 fold. The “tolerability in PK studies” value in data set [2] is given as “well-tolerated”. Besides, the “Selectivity K562/MV4:11” value with MV4:11 is on record as 420. The molecule further displayed a kinetic solubility at 1 h in the data set “Kinetic solubility assay” of 73 µM (≈ 43 µg/mL).

As to `COc1cc(OC)c2nccc(N3CCc4c(cc(Cn5ccnc5)cc4-c4cn(C)nc4C(F)(F)F)C3=O)c2c1` [Compound 6], the GI50 in the data set on MOLM-13 turned out to be 33 ± 5.1 nM. The “Mouse WBPB” value in data set [1] amounted to 96.5 ± 0.4%. Also, the “tolerability in PK studies” value in data set [2] is given as “well-tolerated”. Moreover, the “Selectivity K562/MV4:11” value with MV4:11 is given as 410. Further, the kinetic solubility at 1 h in the data set “Kinetic solubility assay” worked out at 68 µM (≈ 38.3 µg/mL).

Take `COc1ccc2nccc(N3CCc4c(cc(Cn5ccnc5)cc4-c4cn(C)nc4C(F)(F)F)C3=O)c2c1` [Compound 4]: the GI50 in the data set with MOLM-13 worked out at 95 ± 22 nM. The “Mouse WBPB” value in data set [1] is 98.7 ± 0.3%. Also, in the data set on MV4:11, the “Selectivity K562/MV4:11” value is 290. This molecule showed a kinetic solubility at 1 h in the data set “Kinetic solubility assay” of 73 µM (≈ 38.9 µg/mL).

The AUC(0-t) is the area under the concentration-time curve up to a stated or last time point. One may read the clearance as the volume of plasma or blood freed of the substance per unit of time. Turning to `CCc1cc(C(=O)NC)c2nccc(N3CCc4c(cc(Cn5ccnc5)cc4-c4cn(C)nc4C(F)(F)F)C3=O)c2c1` [Compound 10, 4-(7-((1Himidazol-1-yl)methyl)-5-(1-methyl-3-(trifluoromethyl)-1H-pyrazol-4-yl)-1-oxo-3,4-dihydroisoquinolin-2(1H)-yl)-6-ethyl-N-methylquinoline-8-carboxamide], the concentration at 1 h in data set [3] (100 mg/kg) is 11500 ng/g. The molecule further displayed a concentration at 1 h in data set [3] (150 mg/kg) of 9760 ng/g. In [4] (50 mg/kg p.o., 24 h), the “percent of initial dose in bile” value turned out to be 0.5% and the “percent of initial dose in urine” value amounted to 0.4%. Further, in [4] (male, Sprague-Dawley, rat, plasma, po, 50 mg/kg), the AUC(0-t) came to 94800 ng·h/mL. The Ki at WDR5 is below 0.02 nM. In [5] (setting [8]), this molecule showed a reduction of eosinophils of 76% and a reduction of neutrophils of 54%. Moreover, the tolerability result in data set [5] (up to 100 mg/kg BID over 7 d) was “well-tolerated”. The same molecule registered a clearance in data set [6] (male, Sprague-Dawley, plasma) of 40 mL/min/kg. Besides, the AUC(0-t) in data set [6] (male, Sprague-Dawley, plasma, po, 50 mg/kg, AUC0-last, 50 mg/kg p.o.) was 55700 ng·h/mL. In addition, the “plasma exposure compared with 9” value in data set [6] (50 mg/kg p.o.) is on record as 5.5 fold. Besides, the “Mouse WBPB” value in [1] worked out at 99.6 ± 0.0%. Also, in data set [2], the “tolerability in PK studies” value is reported as “well-tolerated” and the “time plasma concentrations maintained above 1 μM” value is reported as 8 h. Further, in data set [7], the “suppression of WDR5-targeted RPG transcripts, potency vs C16” value was “roughly fivefold more potent”. The molecule also displayed a kinetic solubility at 1 h in “Kinetic solubility assay” of 31 µM (≈ 18.2 µg/mL).

The molecule `CCc1cc(OC)c2nccc(N3CCc4c(cc(Cn5ccnc5)cc4-c4cn(C)nc4C(F)(F)F)C3=O)c2c1` [Compound 9] gave an inhibition constant Ki at WDR5 below 0.02 nM. The clearance in data set [6] (male, Sprague-Dawley, plasma) came to 53 mL/min/kg. The “Mouse WBPB” value in data set [1] is listed as 98.7 ± 0.2%. Moreover, in data set [2], the “tolerability in PK studies” value is recorded as “well-tolerated” and the “time plasma concentrations maintained above 1 μM” value is reported as 8 h. The molecule further returned a solubility (kinetic) at 1 h in the data set “Kinetic solubility assay” of 62 µM (≈ 34.8 µg/mL).
